{"source": "PubChem BioAssay (NCI)", "assay_in_all_cases": "NCI tumour cell line growth inhibition, 48 h", "key": {"HT29 colon": {"tested_on": "HT29 colon"}, "IGROV1 ovarian": {"tested_on": "IGROV1 ovarian"}, "MCF7 breast": {"tested_on": "MCF7 breast"}, "NCI/ADR-RES ovarian": {"tested_on": "NCI/ADR-RES ovarian"}, "OVCAR-4 ovarian": {"tested_on": "OVCAR-4 ovarian"}, "SF-539 CNS": {"tested_on": "SF-539 CNS"}, "SK-MEL-2 melanoma": {"tested_on": "SK-MEL-2 melanoma"}, "SK-MEL-5 melanoma": {"tested_on": "SK-MEL-5 melanoma"}, "SR leukemia": {"tested_on": "SR leukemia"}, "SW-620 colon": {"tested_on": "SW-620 colon"}}, "note": "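Results reflect a 48-hour exposure of cells in 96-well plates to compound at five concentrations. TGI denotes the concentration required for complete inhibition of growth.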"}
{"smiles": "COC(=O)CCCC1(CCCC(=O)OC)CCCCCCCCC(CCCC(=O)OC)(CCCC(=O)OC)C(=O)C1=O", "values": [{"measurement": "TGI", "setting": "HT29 colon", "result": "> 100", "unit": "µM"}, {"measurement": "TGI", "setting": "IGROV1 ovarian", "result": 47.6, "unit": "µM"}, {"measurement": "TGI", "setting": "MCF7 breast", "result": "> 100", "unit": "µM"}, {"measurement": "TGI", "setting": "NCI/ADR-RES ovarian", "result": "> 100", "unit": "µM"}, {"measurement": "TGI", "setting": "OVCAR-4 ovarian", "result": 54.7, "unit": "µM"}, {"measurement": "TGI", "setting": "SF-539 CNS", "result": 61.3, "unit": "µM"}, {"measurement": "TGI", "setting": "SK-MEL-2 melanoma", "result": 70.5, "unit": "µM"}, {"measurement": "TGI", "setting": "SK-MEL-5 melanoma", "result": "> 100", "unit": "µM"}, {"measurement": "TGI", "setting": "SR leukemia", "result": 85.5, "unit": "µM"}, {"measurement": "TGI", "setting": "SW-620 colon", "result": "> 100", "unit": "µM"}]}
{"smiles": "CC(C)NCC(O)c1ccc(O)c2ncccc12", "note": "(stereo not given)", "values": [{"measurement": "TGI", "setting": "HT29 colon", "result": "> 100", "unit": "µM"}, {"measurement": "TGI", "setting": "IGROV1 ovarian", "result": "> 100", "unit": "µM"}, {"measurement": "TGI", "setting": "MCF7 breast", "result": "> 100", "unit": "µM"}, {"measurement": "TGI", "setting": "NCI/ADR-RES ovarian", "result": 92.5, "unit": "µM"}, {"measurement": "TGI", "setting": "OVCAR-4 ovarian", "result": "> 100", "unit": "µM"}, {"measurement": "TGI", "setting": "SF-539 CNS", "result": "> 100", "unit": "µM"}, {"measurement": "TGI", "setting": "SK-MEL-2 melanoma", "result": "> 100", "unit": "µM"}, {"measurement": "TGI", "setting": "SK-MEL-5 melanoma", "result": "> 100", "unit": "µM"}, {"measurement": "TGI", "setting": "SR leukemia", "result": 67.6, "unit": "µM"}, {"measurement": "TGI", "setting": "SW-620 colon", "result": "> 100", "unit": "µM"}]}
{"smiles": "N/C(=N\\S(=O)(=O)c1ccc(-c2ccccn2)s1)Nc1ccc(Cl)cc1", "values": [{"measurement": "TGI", "setting": "HT29 colon", "result": 35.2, "unit": "µM"}, {"measurement": "TGI", "setting": "IGROV1 ovarian", "result": 34.1, "unit": "µM"}, {"measurement": "TGI", "setting": "MCF7 breast", "result": 34.4, "unit": "µM"}, {"measurement": "TGI", "setting": "NCI/ADR-RES ovarian", "result": 43.5, "unit": "µM"}, {"measurement": "TGI", "setting": "OVCAR-4 ovarian", "result": 37.7, "unit": "µM"}, {"measurement": "TGI", "setting": "SF-539 CNS", "result": 29.7, "unit": "µM"}, {"measurement": "TGI", "setting": "SK-MEL-2 melanoma", "result": 27.4, "unit": "µM"}, {"measurement": "TGI", "setting": "SK-MEL-5 melanoma", "result": 30.6, "unit": "µM"}, {"measurement": "TGI", "setting": "SR leukemia", "result": 53.1, "unit": "µM"}, {"measurement": "TGI", "setting": "SW-620 colon", "result": 45.1, "unit": "µM"}]}
{"smiles": "C[C@]12C(=O)C=CCC1=CC[C@@H]1[C@@H]2[C@H]2CC3(O)C(=O)O[C@@]4(C)[C@H]5C[C@@]6(C)[C@@H]7[C@@]2(O)[C@]1(OC[C@H]6C(=O)O5)O[C@]734", "note": "(stereo not given in full)", "values": [{"measurement": "TGI", "setting": "HT29 colon", "result": "> 100", "unit": "µM"}, {"measurement": "TGI", "setting": "IGROV1 ovarian", "result": "> 100", "unit": "µM"}, {"measurement": "TGI", "setting": "MCF7 breast", "result": "> 100", "unit": "µM"}, {"measurement": "TGI", "setting": "NCI/ADR-RES ovarian", "result": "> 100", "unit": "µM"}, {"measurement": "TGI", "setting": "OVCAR-4 ovarian", "result": "> 100", "unit": "µM"}, {"measurement": "TGI", "setting": "SF-539 CNS", "result": 42.9, "unit": "µM"}, {"measurement": "TGI", "setting": "SK-MEL-2 melanoma", "result": "> 100", "unit": "µM"}, {"measurement": "TGI", "setting": "SK-MEL-5 melanoma", "result": "> 100", "unit": "µM"}, {"measurement": "TGI", "setting": "SR leukemia", "result": 75.2, "unit": "µM"}, {"measurement": "TGI", "setting": "SW-620 colon", "result": "> 100", "unit": "µM"}]}
{"smiles": "Cc1ccc(S(=O)(=O)NC(=O)NCCc2ccc(O)c(O)c2)cc1", "values": [{"measurement": "TGI", "setting": "HT29 colon", "result": "> 100", "unit": "µM"}, {"measurement": "TGI", "setting": "IGROV1 ovarian", "result": "> 100", "unit": "µM"}, {"measurement": "TGI", "setting": "MCF7 breast", "result": "> 100", "unit": "µM"}, {"measurement": "TGI", "setting": "NCI/ADR-RES ovarian", "result": "> 100", "unit": "µM"}, {"measurement": "TGI", "setting": "OVCAR-4 ovarian", "result": "> 100", "unit": "µM"}, {"measurement": "TGI", "setting": "SF-539 CNS", "result": "> 100", "unit": "µM"}, {"measurement": "TGI", "setting": "SK-MEL-2 melanoma", "result": "> 100", "unit": "µM"}, {"measurement": "TGI", "setting": "SK-MEL-5 melanoma", "result": "> 100", "unit": "µM"}, {"measurement": "TGI", "setting": "SR leukemia", "result": "> 100", "unit": "µM"}, {"measurement": "TGI", "setting": "SW-620 colon", "result": "> 100", "unit": "µM"}]}
{"smiles": "O=C(/C=C/c1ccc(OCc2ccccc2)cc1)NCc1ccc(C(=O)NCc2ccccc2)cc1", "values": [{"measurement": "TGI", "setting": "HT29 colon", "result": "> 100", "unit": "µM"}, {"measurement": "TGI", "setting": "IGROV1 ovarian", "result": "> 100", "unit": "µM"}, {"measurement": "TGI", "setting": "MCF7 breast", "result": "> 100", "unit": "µM"}, {"measurement": "TGI", "setting": "NCI/ADR-RES ovarian", "result": "> 100", "unit": "µM"}, {"measurement": "TGI", "setting": "OVCAR-4 ovarian", "result": "> 100", "unit": "µM"}, {"measurement": "TGI", "setting": "SF-539 CNS", "result": "> 100", "unit": "µM"}, {"measurement": "TGI", "setting": "SK-MEL-2 melanoma", "result": "> 100", "unit": "µM"}, {"measurement": "TGI", "setting": "SK-MEL-5 melanoma", "result": "> 100", "unit": "µM"}, {"measurement": "TGI", "setting": "SR leukemia", "result": "> 100", "unit": "µM"}, {"measurement": "TGI", "setting": "SW-620 colon", "result": "> 100", "unit": "µM"}]}
{"smiles": "N#C/C=c1/c2ccccc2n2nc3ccccc3c12", "values": [{"measurement": "TGI", "setting": "HT29 colon", "result": "> 100", "unit": "µM"}, {"measurement": "TGI", "setting": "IGROV1 ovarian", "result": 58.3, "unit": "µM"}, {"measurement": "TGI", "setting": "MCF7 breast", "result": "> 100", "unit": "µM"}, {"measurement": "TGI", "setting": "NCI/ADR-RES ovarian", "result": "> 100", "unit": "µM"}, {"measurement": "TGI", "setting": "OVCAR-4 ovarian", "result": 31.5, "unit": "µM"}, {"measurement": "TGI", "setting": "SF-539 CNS", "result": 37.6, "unit": "µM"}, {"measurement": "TGI", "setting": "SK-MEL-2 melanoma", "result": "> 100", "unit": "µM"}, {"measurement": "TGI", "setting": "SK-MEL-5 melanoma", "result": "> 100", "unit": "µM"}, {"measurement": "TGI", "setting": "SR leukemia", "result": "> 100", "unit": "µM"}, {"measurement": "TGI", "setting": "SW-620 colon", "result": "> 100", "unit": "µM"}]}
{"smiles": "CC(=O)NNc1nc(C)c(C(/C=C/c2ccc([N+](=O)[O-])cc2)=N/NC(N)=O)s1", "values": [{"measurement": "TGI", "setting": "HT29 colon", "result": "> 100", "unit": "µM"}, {"measurement": "TGI", "setting": "IGROV1 ovarian", "result": "> 100", "unit": "µM"}, {"measurement": "TGI", "setting": "MCF7 breast", "result": "> 100", "unit": "µM"}, {"measurement": "TGI", "setting": "NCI/ADR-RES ovarian", "result": "> 100", "unit": "µM"}, {"measurement": "TGI", "setting": "OVCAR-4 ovarian", "result": "> 100", "unit": "µM"}, {"measurement": "TGI", "setting": "SF-539 CNS", "result": "> 100", "unit": "µM"}, {"measurement": "TGI", "setting": "SK-MEL-2 melanoma", "result": "> 100", "unit": "µM"}, {"measurement": "TGI", "setting": "SK-MEL-5 melanoma", "result": "> 100", "unit": "µM"}, {"measurement": "TGI", "setting": "SR leukemia", "result": "> 100", "unit": "µM"}, {"measurement": "TGI", "setting": "SW-620 colon", "result": "> 100", "unit": "µM"}]}
{"smiles": "COCCOC(C)C(=O)C(O)S(=O)(=O)O", "note": "(stereo not given)", "values": [{"measurement": "TGI", "setting": "HT29 colon", "result": "> 100", "unit": "µM"}, {"measurement": "TGI", "setting": "IGROV1 ovarian", "result": "> 100", "unit": "µM"}, {"measurement": "TGI", "setting": "MCF7 breast", "result": "> 100", "unit": "µM"}, {"measurement": "TGI", "setting": "NCI/ADR-RES ovarian", "result": "> 100", "unit": "µM"}, {"measurement": "TGI", "setting": "OVCAR-4 ovarian", "result": "> 100", "unit": "µM"}, {"measurement": "TGI", "setting": "SF-539 CNS", "result": "> 100", "unit": "µM"}, {"measurement": "TGI", "setting": "SK-MEL-2 melanoma", "result": "> 100", "unit": "µM"}, {"measurement": "TGI", "setting": "SK-MEL-5 melanoma", "result": "> 100", "unit": "µM"}, {"measurement": "TGI", "setting": "SR leukemia", "result": "> 100", "unit": "µM"}, {"measurement": "TGI", "setting": "SW-620 colon", "result": "> 100", "unit": "µM"}]}
{"smiles": "Nc1ncnc2c1ncn2C1OC(CO)C(O)C1NS(=O)(=O)c1ccccc1", "note": "(stereo not given)", "values": [{"measurement": "TGI", "setting": "HT29 colon", "result": "> 100", "unit": "µM"}, {"measurement": "TGI", "setting": "IGROV1 ovarian", "result": "> 100", "unit": "µM"}, {"measurement": "TGI", "setting": "MCF7 breast", "result": "> 100", "unit": "µM"}, {"measurement": "TGI", "setting": "NCI/ADR-RES ovarian", "result": "> 100", "unit": "µM"}, {"measurement": "TGI", "setting": "OVCAR-4 ovarian", "result": "> 100", "unit": "µM"}, {"measurement": "TGI", "setting": "SF-539 CNS", "result": "> 100", "unit": "µM"}, {"measurement": "TGI", "setting": "SK-MEL-2 melanoma", "result": "> 100", "unit": "µM"}, {"measurement": "TGI", "setting": "SK-MEL-5 melanoma", "result": "> 100", "unit": "µM"}, {"measurement": "TGI", "setting": "SR leukemia", "result": "> 100", "unit": "µM"}, {"measurement": "TGI", "setting": "SW-620 colon", "result": "> 100", "unit": "µM"}]}
